Results from publication PMC11291634 (Scientific Reports, 2024).

Target: carboxylesterase Ha006a
Assay: ITC with purified protein, one-site model, […] °C
Format: binding, Helicoverpa armigera

For `CCNc1nc(Cl)nc(NC(C)C)n1` [ATZ, atrazine], the Kd was 57 µM.
